Patent US7078209B2, “CAK inhibitors and uses thereof” (Vertex Pharmaceuticals Incorporated, priority 2001, dated 2006)

Molecular target: CDK activating kinase (CAK) from Candida albicans (Candida albicans, UniProt A0A1D8PH53)
Experiment: Candida albicans CAK kinase assay: phosphorylation of human CDK2 with 33P labeled ATP
Format: biochemical
Conditions: 2 nM CAK, 0.3 μM CDK2·FSBA, 10 μM ATP, room temperature, pH 7.5
Procedure: Activity of CDK activating kinase (CAK) from Candida albicans was measured by following the phosphorylation of human cyclin dependent kinase 2 (CDK 2) with ^33P labeled ATP. Reactions were carried out at room temperature in 100 mM HEPES, pH 7.5, 1 mM MgCl2, 100 mM NaCl and 1 mM DTT. Final concentrations of CAK and CDK2 were 2 nM and 300 nM, respectively. The CDK-2 substrate was inactivated with 5′ fluorosulfonylbenzoyladenosine (FSBA) to oblate its intrinsic ATPase activity. Test compounds in DMSO (final concentrations 30 μM, 1.5% DMSO) were first incubated with CAK and CDK2 for 40 minutes, then the reaction initiated by addition of ^33P ATP (final concentration 10 μM, specific activity=[…], NEN, Boston, Mass.). The reaction was allowed to proceed for 40 minutes and quenched by addition of 10% TCA containing 250 mM ATP. The quenched reaction was harvested onto GF/C glass fiber filter plates (Packard, Meriden, Conn.) using a Tomtec 9600 cell harvester (Tomtec, Hamden, Conn.), washed with 5% TCA and water. The plates were then treated with 50 μl of scintillation fluid and counted using a Packard top count (Packard, Meriden, Conn.). Ki values for inhibitory compounds were determined using the same assay at a series of compound concentrations.
• 100 mM HEPES, pH 7.5 • 1 mM MgCl2 • 100 mM NaCl • 1 mM DTT • 2 nM CAK • 0.3 μM CDK2·FSBA • 1.5% DMSO (compounds are dissolved in DMSO) • 10 μM ATP (specific activity·1.25e9 μCi/mol ATP)

Sequence of CDK activating kinase (CAK) from Candida albicans (A0A1D8PH53 entry or part of it): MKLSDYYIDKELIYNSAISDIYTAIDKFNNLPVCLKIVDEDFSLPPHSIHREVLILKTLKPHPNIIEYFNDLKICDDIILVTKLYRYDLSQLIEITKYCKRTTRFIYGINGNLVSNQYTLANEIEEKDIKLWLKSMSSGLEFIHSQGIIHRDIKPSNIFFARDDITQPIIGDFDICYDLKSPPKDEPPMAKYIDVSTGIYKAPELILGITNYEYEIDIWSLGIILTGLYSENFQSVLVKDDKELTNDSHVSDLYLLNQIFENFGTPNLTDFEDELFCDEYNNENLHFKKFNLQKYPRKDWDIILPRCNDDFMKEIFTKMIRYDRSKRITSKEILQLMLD

| SMILES | Ki |
| --- | --- |
| N#Cc1c(N)c(C(=O)c2cccc(Cl)c2)n2ccccc12 [Compound 3] | 0.29 µM |
| N#Cc1c(N)c(C(=O)c2ccc3ccccc3c2)n2ccccc12 [Compound 4] | 0.54 µM |
| N#Cc1c(N)c(C(=O)c2ccc(F)cc2)n2ccccc12 [Compound 6] | 0.88 µM |
| N#Cc1c(N)c(C(=O)c2ccc(Cl)c(Cl)c2)n2ccccc12 [Compound 5] | 0.64 µM |
| N#Cc1c(N)c(C(=O)c2cccc(I)c2)n2ccccc12 [Compound 1] | 0.06 µM |
| COc1cccc(C(=O)c2c(N)c(C#N)c3ccccn23)c1 [Compound 2] | 0.21 µM |

The next lines start with the values.

| Ki | SMILES |
| --- | --- |
| 2.4 µM | COc1ccc(C(=O)c2c(N)c(C#N)c3ccccn23)cc1 [Compound 12] |
| 1.9 µM | N#Cc1c(N)c(C(=O)c2ccc(Br)cc2)n2ccccc12 [Compound 11] |
| 1 µM | N#Cc1c(N)c(C(=O)c2ccc(F)c(F)c2)n2ccccc12 [Compound 8] |
| 0.94 µM | COc1ccccc1C(=O)c1c(N)c(C#N)c2ccccn12 [Compound 7] |
| 1.5 µM | N#Cc1c(N)c(C(=O)c2ccc(OC(F)(F)F)cc2)n2ccccc12 [Compound 10] |
| 1.3 µM | N#Cc1c(N)c(C(=O)c2ccc(Cl)cc2)n2ccccc12 [Compound 9] |
| > 30 µM | CC(=O)Nc1c(C#N)c2ccccn2c1C(=O)c1ccc(F)cc1 [Compound 13] |
